Measured values reported in the NIST ThermoML archive (doi:10.1021/je8007759).
± gives the expanded uncertainty stated by the source.

Test: xn = mol fraction of the nth substance listed

CC1CCC(=O)O1 (stereo not given) [γ-valerolactone] + O=C=O
mass density [kg/m3], Fluid (supercritical or subcritical phases), Pycnometric method
Settings | 322.9 K | 327.9 K
9870 kPa, x1 = 0.01 | 521 ± 18 | –
9890 kPa, x1 = 0.01 | 526 ± 15 | –
9920 kPa, x1 = 0.01 | 529 ± 16 | –
9940 kPa, x1 = 0.01 | 532 ± 16 | –
9960 kPa, x1 = 0.01 | 535 ± 16 | –
9980 kPa, x1 = 0.01 | 539 ± 16 | –
10000 kPa, x1 = 0.01 | 540 ± 21 | –
10020 kPa, x1 = 0.01 | 542 ± 15 | –
10050 kPa, x1 = 0.01 | 547 ± 15 | –
10080 kPa, x1 = 0.01 | 550 ± 39 | –
10100 kPa, x1 = 0.01 | 554 ± 17 | –
10110 kPa, x1 = 0.01 | 556 ± 17 | –
10140 kPa, x1 = 0.01 | 559 ± 4 | –
10170 kPa, x1 = 0.01 | 563 ± 9 | –
10200 kPa, x1 = 0.01 | 566 ± 15 | –
10230 kPa, x1 = 0.01 | 576 ± 13 | –
10230 kPa, x1 = 0.025 | 673 ± 8 | –
10240 kPa, x1 = 0.025 | 675 ± 8 | –
10260 kPa, x1 = 0.01 | 574 ± 14 | –
10270 kPa, x1 = 0.025 | 679 ± 14 | –
10290 kPa, x1 = 0.01 | 578 ± 13 | –
10310 kPa, x1 = 0.025 | 683 ± 18 | –
10330 kPa, x1 = 0.01 | 582 ± 10 | –
10370 kPa, x1 = 0.01 | 586 ± 13 | –
10370 kPa, x1 = 0.025 | 687 ± 10 | –
10380 kPa, x1 = 0.15 | 939 ± 4 | –
10400 kPa, x1 = 0.01 | 590 ± 13 | –
10430 kPa, x1 = 0.01 | 594 ± 12 | –
10440 kPa, x1 = 0.025 | 692 ± 11 | –
10470 kPa, x1 = 0.01 | 598 ± 12 | –
10470 kPa, x1 = 0.025 | 696 ± 10 | –
10510 kPa, x1 = 0.05 | 766 ± 9 | –
10520 kPa, x1 = 0.01 | 602 ± 8 | –
10540 kPa, x1 = 0.025 | 701 ± 11 | –
10550 kPa, x1 = 0.05 | 769 ± 9 | –
10570 kPa, x1 = 0.01 | 606 ± 8 | 497 ± 12
10600 kPa, x1 = 0.01 | – | 500 ± 12
10600 kPa, x1 = 0.05 | 771 ± 9 | –
10610 kPa, x1 = 0.025 | 705 ± 11 | –
10620 kPa, x1 = 0.01 | 610 ± 10 | –
10630 kPa, x1 = 0.01 | – | 502 ± 13
10630 kPa, x1 = 0.1 | 881 ± 12 | –
10660 kPa, x1 = 0.01 | – | 505 ± 13
10670 kPa, x1 = 0.025 | 710 ± 10 | –
10680 kPa, x1 = 0.01 | 615 ± 11 | –
10690 kPa, x1 = 0.01 | – | 509 ± 25
10700 kPa, x1 = 0.1 | 882 ± 7 | –
10720 kPa, x1 = 0.01 | 619 ± 10 | 511 ± 25
10720 kPa, x1 = 0.05 | 776 ± 7 | –
10740 kPa, x1 = 0.01 | – | 514 ± 13
10750 kPa, x1 = 0.025 | 714 ± 11 | –
10770 kPa, x1 = 0.01 | – | 517 ± 6
10770 kPa, x1 = 0.1 | 884 ± 5 | –
10780 kPa, x1 = 0.01 | 624 ± 11 | –
10820 kPa, x1 = 0.01 | – | 522 ± 13
10820 kPa, x1 = 0.025 | 718 ± 9 | –
10840 kPa, x1 = 0.01 | 629 ± 12 | –
10840 kPa, x1 = 0.1 | 885 ± 5 | –
10860 kPa, x1 = 0.05 | 781 ± 7 | –
10880 kPa, x1 = 0.01 | – | 529 ± 13
10880 kPa, x1 = 0.15 | 943 ± 4 | –
10900 kPa, x1 = 0.01 | 633 ± 8 | –
10910 kPa, x1 = 0.025 | 723 ± 8 | –
10930 kPa, x1 = 0.01 | – | 535 ± 13
10980 kPa, x1 = 0.01 | 638 ± 9 | –
11000 kPa, x1 = 0.1 | 888 ± 6 | –
11010 kPa, x1 = 0.01 | – | 542 ± 12
11010 kPa, x1 = 0.05 | 787 ± 6 | –
11020 kPa, x1 = 0.025 | 727 ± 11 | –
11040 kPa, x1 = 0.01 | 641 ± 9 | –
11080 kPa, x1 = 0.01 | – | 549 ± 13
11090 kPa, x1 = 0.025 | 732 ± 9 | –
11130 kPa, x1 = 0.01 | – | 554 ± 12
11160 kPa, x1 = 0.01 | 650 ± 11 | –
11180 kPa, x1 = 0.05 | 792 ± 6 | –
11190 kPa, x1 = 0.01 | – | 559 ± 11
11190 kPa, x1 = 0.025 | 737 ± 8 | –
11200 kPa, x1 = 0.15 | 945 ± 4 | –
11230 kPa, x1 = 0.1 | 892 ± 9 | –
11280 kPa, x1 = 0.01 | – | 567 ± 11
11290 kPa, x1 = 0.01 | 657 ± 9 | –
11300 kPa, x1 = 0.025 | – | 661 ± 9
11310 kPa, x1 = 0.025 | 742 ± 6 | –
11360 kPa, x1 = 0.025 | – | 665 ± 9
11380 kPa, x1 = 0.05 | 797 ± 6 | –
11420 kPa, x1 = 0.01 | – | 578 ± 10
11420 kPa, x1 = 0.025 | – | 669 ± 6
11450 kPa, x1 = 0.025 | 747 ± 7 | –
11480 kPa, x1 = 0.025 | – | 673 ± 7
11510 kPa, x1 = 0.01 | 667 ± 8 | 586 ± 10
11520 kPa, x1 = 0.025 | – | 677 ± 7
11540 kPa, x1 = 0.025 | 751 ± 6 | –
11540 kPa, x1 = 0.1 | 897 ± 4 | –
11580 kPa, x1 = 0.05 | 803 ± 6 | –
11590 kPa, x1 = 0.025 | – | 682 ± 6
11600 kPa, x1 = 0.15 | – | 928 ± 4
11630 kPa, x1 = 0.01 | – | 594 ± 9
11660 kPa, x1 = 0.025 | – | 686 ± 8
11700 kPa, x1 = 0.025 | 757 ± 7 | –
11720 kPa, x1 = 0.05 | – | 759 ± 10
11730 kPa, x1 = 0.025 | – | 690 ± 7
11740 kPa, x1 = 0.1 | – | 864 ± 12
11760 kPa, x1 = 0.15 | 950 ± 4 | –
11770 kPa, x1 = 0.1 | – | 865 ± 6
11790 kPa, x1 = 0.01 | – | 606 ± 9
11800 kPa, x1 = 0.01 | 681 ± 7 | –
11800 kPa, x1 = 0.025 | – | 694 ± 8
11800 kPa, x1 = 0.05 | 808 ± 5 | –
11820 kPa, x1 = 0.025 | 763 ± 8 | –
11840 kPa, x1 = 0.05 | – | 763 ± 7
11880 kPa, x1 = 0.1 | – | 867 ± 6
11890 kPa, x1 = 0.025 | – | 698 ± 8
11920 kPa, x1 = 0.01 | – | 615 ± 9
11920 kPa, x1 = 0.15 | – | 931 ± 4
11970 kPa, x1 = 0.025 | 768 ± 6 | –
11970 kPa, x1 = 0.05 | – | 768 ± 6
11980 kPa, x1 = 0.01 | – | 621 ± 9
11990 kPa, x1 = 0.025 | – | 703 ± 7
12010 kPa, x1 = 0.1 | 903 ± 4 | –
12030 kPa, x1 = 0.01 | 691 ± 6 | –
12050 kPa, x1 = 0.1 | – | 871 ± 6
12070 kPa, x1 = 0.01 | – | 628 ± 9
12080 kPa, x1 = 0.05 | 814 ± 5 | –
12110 kPa, x1 = 0.025 | – | 709 ± 10
12130 kPa, x1 = 0.025 | 773 ± 9 | –
12130 kPa, x1 = 0.05 | – | 774 ± 6
12140 kPa, x1 = 0.15 | 952 ± 4 | –
12250 kPa, x1 = 0.15 | – | 934 ± 4
12280 kPa, x1 = 0.025 | – | 716 ± 7
12300 kPa, x1 = 0.01 | – | 639 ± 8
12310 kPa, x1 = 0.05 | – | 779 ± 6
12320 kPa, x1 = 0.05 | 820 ± 5 | –
12330 kPa, x1 = 0.025 | 778 ± 10 | –
12520 kPa, x1 = 0.025 | 784 ± 6 | –
12540 kPa, x1 = 0.1 | 910 ± 4 | –
12620 kPa, x1 = 0.05 | 826 ± 5 | –
12660 kPa, x1 = 0.15 | 956 ± 4 | –
12710 kPa, x1 = 0.025 | 790 ± 5 | –
12920 kPa, x1 = 0.025 | 795 ± 6 | –
12960 kPa, x1 = 0.05 | 832 ± 5 | –
13080 kPa, x1 = 0.1 | 915 ± 4 | –
13150 kPa, x1 = 0.025 | 801 ± 6 | –
13170 kPa, x1 = 0.15 | 959 ± 4 | –
13320 kPa, x1 = 0.05 | 838 ± 5 | –
13390 kPa, x1 = 0.025 | 806 ± 5 | –
13570 kPa, x1 = 0.05 | 843 ± 5 | –
13640 kPa, x1 = 0.025 | 812 ± 5 | –
13720 kPa, x1 = 0.15 | 962 ± 4 | –
13790 kPa, x1 = 0.1 | 923 ± 4 | –
14000 kPa, x1 = 0.05 | 850 ± 5 | –
14100 kPa, x1 = 0.025 | 821 ± 5 | –
14230 kPa, x1 = 0.15 | 965 ± 4 | –
14430 kPa, x1 = 0.05 | 856 ± 5 | –
14490 kPa, x1 = 0.1 | 929 ± 4 | –
14840 kPa, x1 = 0.05 | 862 ± 5 | –
14860 kPa, x1 = 0.15 | 969 ± 4 | –
14880 kPa, x1 = 0.1 | 932 ± 5 | –
15440 kPa, x1 = 0.15 | 972 ± 4 | –
15620 kPa, x1 = 0.05 | 872 ± 5 | –
15960 kPa, x1 = 0.15 | 975 ± 4 | –
16660 kPa, x1 = 0.15 | 979 ± 4 | –
17270 kPa, x1 = 0.15 | 982 ± 4 | –

mass density [kg/m3], 322.9 K, high pressure variable cell
Settings | x1 = 0.01 | x1 = 0.025 | x1 = 0.05 | x1 = 0.1 | x1 = 0.15
Gas | 514 ± 4 | 672 ± 4 | 763 ± 4 | – | –
Liquid | – | – | – | 877 ± 4 | 936 ± 4
